According to ChEMBL document CHEMBL1201862, “PubChem BioAssay data set” (2004):
Where “and” joins values, the source holds several entries; their conditions need not be identical. Equal entries are not always repeated. Calls of active or inactive are those of the source. Unless noted, no cut-off for these calls is given here.

Columns and labels:
[1] = cytotoxicity in HEK-293T cells, dose response, cytotoxicity control for BCR NF-kB inhibitor project, luminescence, B-cell screen hits (AID 489021); format: functional, cell-based;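 note: HEK-293T cells carrying an NF-kB luciferase reporter; cells exposed to compound for about 14 hours before viability readout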
[2] = target: G-protein coupled receptor 55 (Homo sapiens, UniProt Q9Y2T6); experiment: GPR55 antagonists, SAR follow-up, counter-screen for GPR35 antagonist project, imaging, image-based (AID 2397); format: functional
[3] = target: G-protein coupled receptor 35 (Homo sapiens, UniProt Q9HC97); experiment: SAR Analysis for the identification of Selective Antagonists of ERK1/2 Activity in GPR35-Overexpressing U2OS Cells. [Related pubchem assays: 2079, 2058 ]; format: functional, cell-based
Escherichia coli = experiment: microbe, parasite or virus in culture
[4] = A Cell-Based Confirmatory Screen for Compounds that Inhibit VEEV, TC-83 (2).; format: functional
[5] = A Cell-Based Counter Screen testing Compounds that Inhibit VEEV TC-83, in strain KU V3526.; format: functional
[6] = A Cell-Based Confirmatory Screen for Compounds that Inhibit VEEV, TC-83 (3).; format: functional
[7] = A Cell-Based Confirmatory Screen for Compounds that Inhibit VEEV, TC-83 (7).; format: functional
[8] = A Cell-Based Confirmatory Screen for Compounds that Inhibit VEEV, TC-83 (8).; format: functional
Vero = experiment: cells; format: functional, cell-based; conditions: Chlorocebus sabaeus
[9] = A Cell-Based Confirmatory Screen for Compounds that Inhibit VEEV TC-83 (4).; format: functional
[10] = A Cell-Based Confirmatory Screen for Compounds that Inhibit VEEV, TC-83 (6).; format: functional
[11] = growth induction of Burl-1 ts yeast mutant, dose response, counter-screen for SUMOylation pathway inhibitor project, whole organism, S. cerevisiae, luminescence (AID 463199); format: functional
[12] = target: Lysine-specific demethylase 4C (Homo sapiens, UniProt Q9H3R0); experiment: GASC-1 (JMJD2C) histone demethylase inhibitors, dose response, biochemical, DELFIA europium, cherry-picked samples (AID 488835); format: functional
Sequence of Lysine-specific demethylase 4C (Q9H3R0 whole entry): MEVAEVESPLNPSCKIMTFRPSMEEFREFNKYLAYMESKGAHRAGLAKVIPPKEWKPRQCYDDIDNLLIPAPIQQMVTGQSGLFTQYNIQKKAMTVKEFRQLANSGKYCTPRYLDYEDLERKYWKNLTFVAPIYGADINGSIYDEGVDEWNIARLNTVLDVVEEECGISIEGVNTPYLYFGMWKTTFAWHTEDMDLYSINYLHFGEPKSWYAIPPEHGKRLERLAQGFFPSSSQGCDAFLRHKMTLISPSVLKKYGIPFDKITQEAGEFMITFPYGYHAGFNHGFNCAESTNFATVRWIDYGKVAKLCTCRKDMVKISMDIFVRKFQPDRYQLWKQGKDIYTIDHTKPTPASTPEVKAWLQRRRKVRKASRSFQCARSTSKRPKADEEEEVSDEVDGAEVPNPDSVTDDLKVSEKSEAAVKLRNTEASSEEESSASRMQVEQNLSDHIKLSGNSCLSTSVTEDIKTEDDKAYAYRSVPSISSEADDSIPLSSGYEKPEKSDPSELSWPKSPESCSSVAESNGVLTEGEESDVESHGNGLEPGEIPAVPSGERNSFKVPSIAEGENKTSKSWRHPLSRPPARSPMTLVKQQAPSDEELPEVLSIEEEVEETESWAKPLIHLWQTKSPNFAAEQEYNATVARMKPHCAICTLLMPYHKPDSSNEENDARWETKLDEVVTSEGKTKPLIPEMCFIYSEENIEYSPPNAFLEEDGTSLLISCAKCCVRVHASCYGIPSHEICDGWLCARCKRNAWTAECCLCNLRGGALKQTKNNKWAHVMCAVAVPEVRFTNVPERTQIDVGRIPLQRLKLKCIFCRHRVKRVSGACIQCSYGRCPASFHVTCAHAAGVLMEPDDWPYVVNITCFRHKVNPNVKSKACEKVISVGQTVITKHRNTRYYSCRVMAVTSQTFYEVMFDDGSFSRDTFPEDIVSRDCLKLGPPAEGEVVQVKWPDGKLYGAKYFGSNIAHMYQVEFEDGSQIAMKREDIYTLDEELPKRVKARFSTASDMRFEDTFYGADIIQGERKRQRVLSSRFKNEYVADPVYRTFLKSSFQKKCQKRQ

Sequence of G-protein coupled receptor 55 (Q9Y2T6 whole entry): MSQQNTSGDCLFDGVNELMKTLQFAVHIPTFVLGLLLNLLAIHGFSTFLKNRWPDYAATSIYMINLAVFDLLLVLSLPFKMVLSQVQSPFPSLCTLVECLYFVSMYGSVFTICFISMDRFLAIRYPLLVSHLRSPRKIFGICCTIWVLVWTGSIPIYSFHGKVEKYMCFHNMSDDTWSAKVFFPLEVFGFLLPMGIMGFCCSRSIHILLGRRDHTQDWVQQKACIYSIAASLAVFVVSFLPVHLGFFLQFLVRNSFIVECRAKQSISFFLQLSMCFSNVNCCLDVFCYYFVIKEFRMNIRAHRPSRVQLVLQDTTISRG
Sequence of G-protein coupled receptor 35 (Q9HC97 whole entry): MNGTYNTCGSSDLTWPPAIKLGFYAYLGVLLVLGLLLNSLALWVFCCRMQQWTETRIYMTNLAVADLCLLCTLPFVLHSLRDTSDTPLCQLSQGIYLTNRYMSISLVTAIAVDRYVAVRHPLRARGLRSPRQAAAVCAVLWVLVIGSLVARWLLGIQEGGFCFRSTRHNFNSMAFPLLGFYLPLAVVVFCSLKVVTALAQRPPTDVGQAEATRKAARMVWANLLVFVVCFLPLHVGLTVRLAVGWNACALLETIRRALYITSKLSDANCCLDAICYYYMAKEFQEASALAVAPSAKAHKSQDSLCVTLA

COc1ccc(/C=C2/SC(=S)N(CCCC(=O)Nc3ccc(O)cc3)C2=O)cc1
IC50 [1]: > 80 µM (inactive)
IC50 [2]: > 32 µM (inactive)
IC50 [3]: > 32 µM (not active)

COC(C(=O)Nc1ccnn1C1CCN(C(=O)c2ccc(C=O)cc2)CC1)c1ccccc1 (centres undefined)
AC50 (Escherichia coli): 26.2 µM (active)

CCN1CCN(Cc2nc3ccc([N+](=O)[O-])cc3c(=O)n2-c2ccccc2F)CC1
IC50 [4]: 0.97 µM (active)
IC50 [5]: 0.97 µM (active)
IC50 [6]: < 0.96 µM (active)
IC50 [7]: 0.81 µM (active)
IC50 [8]: 810 nM (active) and 695 nM (active)
IC50 (Vero): 1.91 µM (active)
IC50 [9]: 0.67 µM (active)
IC50 [10]: 1.01 µM (active)

O=C(CNC(=O)c1ccco1)OCC(=O)c1cccc2ccccc12
AC50 [11]: 54.6 µM (active)

Cc1ccc(NN=Nc2nc3c(=O)n(C)c(=O)n(C)c3[nH]2)cc1
AC50 [12]: 24.7 µM (active)
